Laboratory results: patent publication US6472391B2, “Nitrogen-containing heterocyclic compounds” (Millennium Pharmaceuticals, Inc., priority 1996, dated 2002)

| SMILES | melting point [°C] |
| --- | --- |
| O=C(Nc1ccc(Oc2ccccc2)cc1)N1CCN(c2ncnc3c(I)cc(I)cc23)CC1 [Compound 380, 4-(6,8-Diiodo-4-quinazolinyl)-N-(4-phenoxyphenyl)-1-piperazinecarboxamide] | 242 to 244 |
| COc1cc(OC)c2ncnc(N3CCN(C(=O)Nc4ccc(Oc5ccccc5)cc4)CC3)c2c1 [Compound 381, 4-(6,8-Dimethoxy-4-quinazolinyl)-N-(4-phenoxyphenyl)-1-piperazinecarboxamide] | 109 to 110 |
| COc1ccc2c(N3CCN(C(=O)Nc4ccc(Oc5ccccc5)cc4)CC3)ncnc2c1OC [Compound 383, 4-(7,8-Dimethoxy-4-quinazolinyl)-N-(4-phenoxyphenyl)-1-piperazinecarboxamide] | 189 to 190 |
| COc1ccc2c(N3CCN(C(=S)NCc4ccccc4)CC3)ncnc2c1OC [Compound 384, N-Benzyl-4-(7,8-dimethoxy-4-quinazolinyl)-1-piperazinethiocarboxamide] | 158 to 160 |
| Cn1c(=O)n(C)c2cc3c(N4CCN(C(=O)Nc5ccc([N+](=O)[O-])cc5)CC4)ncnc3cc21 [Compound 386, 4-(1,3-Dihydro-1,3-dimethyl-2-oxo-2H-imidazo[4,5-g]quinazolin-8-yl)-N-(4-nitrophenyl)-1-piperazinecarboxamide] | 299 to 300 |
| CCn1c(=O)n(C)c2cc3c(N4CCN(C(=O)Nc5ccc(Oc6ccccc6)cc5)CC4)ncnc3cc21 [Compound 387, 4-(1,3-Dihydro-3-ethyl-1-methyl-2-oxo-2H-imidazo[4,5-g]quinazolin-8-yl)-N-(4-phenoxyphenyl)-1-piperazinecarboxamide] | 250 to 251 |
| CCn1c(=O)n(C)c2cc3c(N4CCN(C(=S)NCc5ccccc5)CC4)ncnc3cc21 [Compound 388, N-Benzyl-4-(1,3-dihydro-3-ethyl-1-methyl-2-oxo-2H-imidazo[4,5-g]quinazolin-8-yl)-1-piperazinethiocarboxamide] | 207 to 208 |
| CCCn1c(=O)n(CCC)c2cc3c(N4CCN(C(=O)Nc5ccc(Oc6ccccc6)cc5)CC4)ncnc3cc21 [Compound 389, 4-(1,3-Dihydro-1,3-dipropyl-2-oxo-2H-imidazo[4,5-g]quinazolin-8-yl)-N-(4-phenoxyphenyl)-1-piperazinecarboxamide] | 179 to 180 |
| CCCCn1c(=O)n(CCCC)c2cc3c(N4CCN(C(=O)Nc5ccc(Oc6ccccc6)cc5)CC4)ncnc3cc21 [Compound 390, 4-(1,3-Dibutyl-1,3-dihydro-2-oxo-2H-imidazo[4,5-g]quinazolin-8-yl)-N-(4-phenoxyphenyl)-1-piperazinecarboxamide] | 134 to 136 |
| COc1cc2nc(C)nc(N3CCN(C(=O)Nc4ccc(Oc5ccccc5)cc4)CC3)c2cc1OC [Compound 391, 4-(6,7-Dimethoxy-2-methyl-4-quinazolinyl)-N-(4-phenoxyphenyl)-1-piperazinecarboxamide] | 146 to 147 |
| COc1cc2nc(Cl)nc(N3CCN(C(=O)Nc4ccc(Oc5ccccc5)cc4)CC3)c2cc1OC [Compound 392, 4-(2-Chloro-6,7-dimethoxy-4-quinazolinyl)-N-(4-phenoxyphenyl)-1-piperazinecarboxamide] | 178 to 179 |
| COc1cc2nc(N3CCOCC3)nc(N3CCN(C(=O)Nc4ccc(Oc5ccccc5)cc4)CC3)c2cc1OC [Compound 393, 4-(6,7-Dimethoxy-2-morpholino-4-quinazolinyl)-N-(4-phenoxyphenyl)-1-piperazinecarboxamide] | 114 to 116 |
| O=C(Nc1ccc(Oc2ccccc2)cc1)N1CCN(c2ccnc3ccccc23)CC1 [Compound 394, N-(4-Phenoxyphenyl)-4-(4-quinolyl)-1-piperazinecarboxamide] | 145 to 146 |
| S=C(NCc1ccccc1)N1CCN(c2ccnc3ccccc23)CC1 [Compound 395, N-Benzyl-4-(4-quinolyl)-1-piperazinethiocarboxamide] | 75 to 79 |
| O=C(Nc1ccc(Oc2ccccc2)cc1)N1CCN(c2cc(C(F)(F)F)nc3ccccc23)CC1 [Compound 397, N-(4-Phenoxyphenyl)-4-(2-trifluoromethyl-4-quinolyl)-1-piperazinecarboxamide] | 203 to 204 |
| FC(F)(F)c1ccc2nccc(N3CCN(C(=S)NCc4ccccc4)CC3)c2c1 [Compound 398, N-Benzyl-4-(6-trifluoromethyl-4-quinolyl)-1-piperazinethiocarboxamide] | 158 to 159 |
| O=C(Nc1ccc(Oc2ccccc2)cc1)N1CCN(c2ccnc3ccc(Cl)cc23)CC1 [Compound 399, 4-(6-Chloro-4-quinolyl)-N-(4-phenoxyphenyl)-1-piperazinecarboxamide] | 188 to 189 |
| S=C(NCc1ccccc1)N1CCN(c2ccnc3ccc(Cl)cc23)CC1 [Compound 400, N-Benzyl-4-(6-chloro-4-quinolyl)-1-piperazinethiocarboxamide] | 173 to 174 |
| S=C(NCc1ccc(Cl)cc1)N1CCN(c2ccnc3ccc(Cl)cc23)CC1 [Compound 401, N-(4-Chlorobenzyl)-4-(6-chloro-4-quinolyl)-1-piperazinethiocarboxamide] | 89 to 90 |
| FC(F)(F)Oc1ccc2nccc(N3CCN(C(=S)NCc4ccccc4)CC3)c2c1 [Compound 403, N-Benzyl-4-(6-trifluoromethoxy-4-quinolyl)-1-piperazinethiocarboxamide] | 70 to 71 |
| O=C(Nc1ccc(Oc2ccccc2)cc1)N1CCN(c2ccnc3cc(C(F)(F)F)ccc23)CC1 [Compound 404, N-(4-Phenoxyphenyl)-4-(7-trifluoromethyl-4-quinolyl)-1-piperazinecarboxamide] | 163 to 164 |
| S=C(NCc1ccccc1)N1CCN(c2ccnc3cc(Cl)ccc23)CC1 [Compound 405, N-Benzyl-4-(7-chloro-4-quinolyl)-1-piperazinethiocarboxamide] | 84 to 86 |
| COc1cc2nccc(N3CCN(C(=O)Nc4ccc(Oc5ccccc5)cc4)CC3)c2cc1OC [Compound 407, 4-(6,7-Dimethoxy-4-quinolyl)-N-(4-phenoxyphenyl)-1-piperazinecarboxamide] | 204 to 206 |
| CCOC(=O)c1cnc2cc(OC)c(OC)cc2c1N1CCN(C(=O)Nc2ccc(Oc3ccccc3)cc2)CC1 [Compound 408, 4-(6,7-Dimethoxy-3-ethoxycarbonyl-4-quinolyl)-N-(4-phenoxyphenyl)-1-piperazinecarboxamide] | 163 to 164 |
| CCOC(=O)c1cnc2cc(OC)c(OC)cc2c1N1CCN(C(=S)NCc2ccccc2)CC1 [Compound 409, N-Benzyl-4-(6,7-dimethoxy-3-ethoxycarbonyl-4-quinolyl)-1-piperazinethiocarboxamide] | 174 to 175 |
| CCOC(=O)c1cnc2cc(OC)c(OC)cc2c1N1CCN(C(=S)NCc2cccnc2)CC1 [Compound 410, 4-(6,7-Dimethoxy-3-ethoxycarbonyl-4-quinolyl)-N-(3-picolyl)-1-piperazinethiocarboxamide] | 92 to 94 |
| O=C(Nc1ccc(Oc2ccccc2)cc1)N1CCN(c2ccnc3c(C(F)(F)F)cccc23)CC1 [Compound 411, N-(4-Phenoxyphenyl)-4-(8-trifluoromethyl-4-quinolyl)-1-piperazinecarboxamide] | 214 to 215 |
